Consider 3 compounds from patent publication US20250154110A1, “CLAUDIN INHIBITORS AND METHODS OF USE THEREOF” (The University of Chicago, priority 2021, published 2025).

For one test, the system named is mouse mucosa. Kind of test: TER of mouse duodenum mucosa mounted in Ussing chambers. The conditions noted are these: FIG. 22, 100 μM added bilaterally, versus vehicle, P<0.01. From the text: The same techniques to measure TER and ion selectivity also apply to intact mucosa isolated from mice. The only significant difference is the tissue was first stripped of its muscularis propria and mounted in chambers, known as Ussing chambers. The same techniques were used to measure ion selectivity. Identical solutions were used, but also bubbled with 100% oxygen.
For TER measurements, duodenum segments were stripped of muscularis propria and mounted in Ussing chambers, and equilibrated in oxygenated HBSS for 15 min at 37° C. Vehicle control solution (DMSO) or the same solution containing 100 μM NSC 67736 were then added bilaterally. TER was recorded using current clamp pulses from 0 to 10 μA and Vrev was recorded by clamping current to 0. Electrode bridges were made 3% agarose KCl.

The next test concerns the target T1, claudin-15 (Homo sapiens, UniProt P56746).
T1 construct: expressed in transfected cells; host or cells: Madin-Darby Canine Kidney (MDCK) I cells, doxycycline-induced expression
T1 sequence (P56746 1-228): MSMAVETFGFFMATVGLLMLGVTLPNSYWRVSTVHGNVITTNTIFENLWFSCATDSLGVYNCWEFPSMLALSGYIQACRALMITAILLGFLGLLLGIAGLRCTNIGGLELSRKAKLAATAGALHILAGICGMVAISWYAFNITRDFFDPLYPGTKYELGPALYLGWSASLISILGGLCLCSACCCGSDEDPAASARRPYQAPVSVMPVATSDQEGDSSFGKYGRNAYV
Kind of test: TER across MDCK I monolayers induced to express claudin-15. It counts as cell-based. The conditions noted are these: FIG. 20; concentrations lower than 100 μM; resistance normalized to vehicle. From the text: Electrical measures are used to assess the flow of ions through the claudin channels. The most commonly used measurement in the tight junction field is transepithelial electrical resistance (TER). These assays can be performed using epithelial cells grown on permeable supports (in vitro) or using intact tissue from the GI tract mounted across apertures (ex vivo).
Two different Madin-Darby Canine Kidney (MDCK) I cell lines were used, which respectively express either claudin-2 or -15 when grown in the presence of doxycycline. These cells are useful in assessing the specificity of molecule effects on claudin-2 versus claudin-15. Caco-2 BBe epithelial cells, which normally express claudin-2 and some claudin-15, were also used to better understand the utility of these molecules in blocking claudins in the gastrointestinal (GI) tract. Caco-2 BBe and MDCK cells were grown on 0.33 cm^2 polycarbonate semi-permeable membranes with 0.4 μm pores (Corning Life Sciences, Corning, NY) and used 4 days (MDCK) or 3 weeks (Caco-2 BBe) after plating. […]
Molecules were solubilized in vehicle (dimethylsulfoxide (DMSO)) and applied to both sides of the epithelial monolayer after first measuring TER at t=0 (FIGS. 17 and 18). […] Readings were performed for at least 3 hours after application to rule out epithelial cell injury, which would reduce TER. […]

Test [1] concerns colonoids derived from a patient with inflammatory bowel disease. Kind of test: Organoid shrinking assay in colonoids after Na+ to NMDG+ buffer exchange. It counts as cell-based, human. The conditions noted are these: FIG. 25. An excerpt:
For this study, organoids derived from human colon biopsies (colonoids) were first equilibrated in steady-state with Na^+ as the predominant extracellular cation. Extraluminal Na^+ was then replaced with N-methyl-D-glucamine (NMDG^+) by buffer exchange. The buffer exchange generates a large concentration gradient for Na^+ to diffuse out of the organoid lumen. […] See, for example, FIG. 24. As a result, the net Na^+ flux across tight junctions creates an osmotic gradient for water to exit the organoid through tight junctions, causing organoids to shrink. The size of organoids is measured by time-lapse microscopy, and the rate and extent of shrinkage can be determined as an assay of claudin permeability. Reduced rate and extent of shrinkage indicates reduced permeability.
Colonoids derived from a patient with inflammatory bowel disease were first equilibrated in steady-state with Na^+ containing media. Equilibrated colonoids were treated with NSC 73446 or a vehicle control and the extraluminal Na^+ was then replaced with N-methyl-D-glucamine (NMDG^+) by buffer exchange. As is apparent from the results set forth in FIG. 25, water transport across human epithelium was modulated by NSC 73446.

Take `Cl.Cl.O=C(Nc1ccc(C(=O)Nc2ccc(C3=NCCCN3)cc2)cc1)Nc1ccc(C2=NCCCN2)cc1` [NSC 67736]: the “change in TER (barrier function) in mouse mucosa” value with mouse mucosa is recorded as “increases barrier function”.

`O=C(Nc1cccc(C(=O)Nc2cc(C3=NCCN3)cc(C3=NCCN3)c2)c1)Nc1cccc(C(=O)Nc2cc(C3=NCCN3)cc(C3=NCCN3)c2)c1` [NSC 53299]: on claudin-15, the “dose response of TER” value is “effective at low micromolar concentrations”.

With `CCCNC(=O)c1cc(NC(=O)Nc2ccc(C3=NCCCN3)cc2)cc(NC(=O)Nc2ccc(C3=NCCCN3)cc2)c1.Cl` [NSC 73446], the “water transport across human epithelium” value in test [1] (inferred from colonoid size change) was “reduces water transport out of the lumen of the colonoid”. The “colonoid size change (rate and extent of shrinkage)” value in test [1] (time-lapse microscopy, relative to vehicle control) was “minimizes the rate and extent of colonoid size decrease”.
